Measured values from article PMC10215804, “Exploring Alternative Pathways to Target Bacterial Type II Topoisomerases Using NBTI Antibacterials: Beyond Halogen-Bonding Interactions” (Antibiotics, 2023).
Where two headings read alike, the source gives them in different places.

What was measured:
Assay in all cases: MIC, broth microdilution
Type in all cases: cell-based
P. aeruginosa RDK 184 = conditions: Pseudomonas aeruginosa
Outline: (§1)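 CLSI/EUCAST microdilution; CAMHB + TES; final inoculum 10^5 CFU/mL from 0.5 McFarland suspension; compounds dissolved in DMSO; MIC = lowest concentration with no visible growth; tetracycline control on every plate.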

E. coli N43 (CGSC# 5583) = conditions: Escherichia coli
Outline: as §1

VRE = conditions: Enterococcus
Outline: as §1

[1] = RDK184, 20 h, Table S3, read-out: MIC (μM) P. aeruginosa RDK 184
[2] = RDK184, read-out: MIC P. aeruginosa RDK 184
[3] = read-out: MIC E. coli N43 (CGSC# 5583)
[4] = Table S3, read-out: MIC (μM) VRE

Question: Which results are given for COc1ccc2nccc(CCN3CCC(NCc4ccc(C)cc4)CC3)c2n1 [Compound 5, 1-(2-(6-Methoxy-1,5-naphthyridin-4-yl)ethyl)-N-(4-methylbenzyl)piperidin-4-amine]?
Answer: MIC (P. aeruginosa RDK 184; [1]): > 328 µM; MIC (P. aeruginosa RDK 184; [2]): > 128 µg/mL; MIC (E. coli N43 (CGSC# 5583); read-out: MIC (μM) E. coli N43): 0.32 µM; MIC (E. coli N43 (CGSC# 5583); [3]): 0.125 µg/mL; MIC (VRE; [4]): 0.082 µM; MIC (VRE; read-out: MIC VRE): 0.032 µg/mL

Question: Which MIC (P. aeruginosa RDK 184; [1]) does the source give for COc1ccc2nccc(OCC3CCC(NCc4ccc(C)cc4)CO3)c2n1 (stereo not drawn) [Compound 7, 6-(((6-Methoxy-1,5-naphthyridin-4-yl)oxy)methyl)-N-(4-methylbenzyl)tetrahydro-2H-pyran-3-amine] here?
Answer: Its MIC is > 328 µM.

Question: What about the MIC (P. aeruginosa RDK 184; [2]) of the same compound?
Answer: The MIC was > 128 µg/mL.

Question: And the MIC (E. coli N43 (CGSC# 5583); read-out: MIC (μM) E. coli N43)?
Answer: Its MIC is 10.2 µM.

Question: What about the MIC (E. coli N43 (CGSC# 5583); [3]) of the same compound?
Answer: Its MIC is 4 µg/mL.

Question: And the MIC (VRE; [4])?
Answer: The MIC was 5.12 µM.

Question: What about the MIC (VRE; read-out: MIC VRE) of the same compound?
Answer: Its MIC is 2 µg/mL.

Question: Which MIC (P. aeruginosa RDK 184; [1]) does the source give for COc1ccc2nccc(C(O)CC3CCC(NCc4ccc(C)cc4)CC3)c2n1 (stereo not drawn) [Compound 8, 1-(6-Methoxy-1,5-naphthyridin-4-yl)-2-(4-((4-methylbenzyl)amino)cyclohexyl)ethan-1-ol] here?
Answer: The MIC was 328 µM.

Question: What about the MIC (P. aeruginosa RDK 184; [2]) of the same compound?
Answer: Its MIC is 128 µg/mL.

Question: What about the MIC (E. coli N43 (CGSC# 5583); read-out: MIC (μM) E. coli N43) of the same compound?
Answer: Its MIC is 2.56 µM.

Question: And the MIC (E. coli N43 (CGSC# 5583); [3])?
Answer: The MIC was 1 µg/mL.

Question: And the MIC (VRE; [4])?
Answer: Its MIC is 0.32 µM.

Question: And the MIC (VRE; read-out: MIC VRE)?
Answer: The MIC was 0.125 µg/mL.

Question: With COc1ccc2nccc(OCC3CCC(NCc4ccc(C)cc4)CC3)c2n1 (stereo not drawn) [Compound 6] as the compound, how does the MIC (P. aeruginosa RDK 184; [1]) read?
Answer: Its MIC is > 328 µM.

Question: What about the MIC (P. aeruginosa RDK 184; [2]) of the same compound?
Answer: The MIC was > 128 µg/mL.

Question: And the MIC (E. coli N43 (CGSC# 5583); read-out: MIC (μM) E. coli N43)?
Answer: The MIC was 10.2 µM.

Question: What about the MIC (E. coli N43 (CGSC# 5583); [3]) of the same compound?
Answer: Its MIC is 4 µg/mL.

Question: What about the MIC (VRE; [4]) of the same compound?
Answer: The MIC was 5.12 µM.

Question: And the MIC (VRE; read-out: MIC VRE)?
Answer: Its MIC is 2 µg/mL.
